Laboratory results published in patent publication US20230104936A1, “TRPML MODULATORS” (Casma Therapeutics, Inc., priority 2019, published 2023).

Tested on: TFEB
Assay: TFEB nuclear translocation assay, HeLa wt cells
Format: cell-based
Conditions: Homo sapiens, HeLa, 2 h, 2 hrs compound treatment, Table 1 does not say HeLa wt or TRPML1 KO
How it was run: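 HeLa wt or TRPML1 KO cells treated 2 hrs with compounds at 37° C, fixed in 4% PFA, immunostained with anti-TFEB plus Alexa 488 secondary and Hoechst. Imaged at ×20, four fields/well; read-out is nuclear/perinuclear-ring TFEB intensity ratio, reported as AC50.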

`CN(C)S(=O)(=O)c1ccc(S(=O)(=O)Cc2ccccc2N2CCN(Cc3ccccc3)CC2)cc1` [Compound A-406, 4-((2-(4-benzylpiperazin-1-yl)benzyl)sulfonyl)-N,N-dimethylbenzenesulfonamide] was tested. Which AC50 did it give?
Its AC50 is 2010 to 8000 nM.

`CS(=O)(=O)c1ccc(S(=O)(=O)Nc2ccccc2N2CCC3(CC2)CN(Cc2cccnc2)c2cc(F)ccc23)cc1` [Compound A-407, N-(2-{6-fluoro-1-[(pyridin-3-yl)methyl]-1,2-dihydrospiro[indole-3,4′-piperidin]-1′-yl}phenyl)-4-methanesulfonylbenzene-1-sulfonamide] was tested. Which AC50 did it give?
Its AC50 is ≤ 2000 nM.

Which AC50 does the source give for `Cc1ccc(S(=O)(=O)Nc2ccccc2N2CCC(O)(c3ccc(F)cn3)CC2)cc1` [Compound A-408, N-{2-[4-(5-fluoropyridin-2-yl)-4-hydroxypiperidin-1-yl]phenyl}-4-methylbenzene-1-sulfonamide] here?
The AC50 was ≥ 10000 nM.

With `COc1ccc(S(=O)(=O)Nc2ccccc2N2CCC(O)(c3ccc(F)cn3)CC2)cc1` [Compound A-409, N-{2-[4-(5-fluoropyridin-2-yl)-4-hydroxypiperidin-1-yl]phenyl}-4-methoxybenzene-1-sulfonamide] as the molecule, how does the AC50 read?
Its AC50 is ≥ 10000 nM.

Which AC50 does the source give for `CC(C)(C)C(=O)N1CCN(c2ccccc2NS(=O)(=O)Cc2ccccc2)CC1` [Compound A-410, N-{2-[4-(2,2-dimethylpropanoyl)piperazin-1-yl]phenyl}-1-phenylmethanesulfonamide] here?
Its AC50 is 2010 to 8000 nM.

For `CN1CC2(CCN(c3ccccc3NS(=O)(=O)c3ccc(S(=O)(=O)N(C)C)cc3)CC2)c2ccncc21` [Compound A-412, N1,N1-dimethyl-N4-(2-{1′-methyl-1′,2′-dihydrospiro[piperidine-4,3′-pyrrolo[2,3-c]pyridin]-1-yl}phenyl)benzene-1,4-disulfonamide], which AC50 is on record?
The AC50 was ≤ 2000 nM.

Which AC50 does the source give for `CC(C)S(=O)(=O)c1ccc(S(=O)(=O)Nc2ccccc2N2CCC(O)(c3ccc(F)cn3)CC2)cc1` [Compound A-413] here?
Its AC50 is 8010 to 9990 nM.

How did the AC50 turn out when `CN(C)S(=O)(=O)c1ccc(S(=O)(=O)Nc2ccccc2N2CCN(c3ccn(C(C)(C)C)n3)CC2)cc1` [Compound A-414, N4-{2-[4-(1-tert-butyl-1H-pyrazol-3-yl)piperazin-1-yl]phenyl}-N1,N1-dimethylbenzene-1,4-disulfonamide] was run?
The AC50 was ≤ 2000 nM.

With `CN(C)S(=O)(=O)c1ccc(S(=O)(=O)Nc2ccccc2N2CCC(CNC(C)(C)C)CC2)cc1` [Compound A-415, N4-(2-{4-[(tert-butylamino)methyl]piperidin-1-yl}phenyl)-N1,N1-dimethylbenzene-1,4-disulfonamide] as the molecule, how does the AC50 read?
Its AC50 is ≤ 2000 nM.

Which AC50 does the source give for `C[C@H]1CN(c2ccccc2NS(=O)(=O)c2ccc(S(=O)(=O)N(C)C)cc2)CCN1C(=O)c1cscn1` [Compound A-416, N1,N1-dimethyl-N4-{2-[(3S)-3-methyl-4-(1,3-thiazole-4-carbonyl)piperazin-1-yl]phenyl}benzene-1,4-disulfonamide] here?
Its AC50 is 2010 to 8000 nM.

`CN1CCN(CCCS(=O)(=O)Nc2ccccc2N2CCN(C(=O)C(C)(C)C)CC2)CC1` [Compound A-417, N-{2-[4-(2,2-dimethylpropanoyl)piperazin-1-yl]phenyl}-3-(4-methylpiperazin-1-yl)propane-1-sulfonamide] was tested. Which AC50 did it give?
The AC50 was 2010 to 8000 nM.

Which AC50 does the source give for `COCC(C)N1CCN(c2ccccc2NS(=O)(=O)c2ccc(S(=O)(=O)N(C)C)cc2)CC1` (stereo not shown) [Compound A-418, N4-{2-[4-(1-methoxypropan-2-yl)piperazin-1-yl]phenyl}-N1,N1-dimethylbenzene-1,4-disulfonamide] here?
The AC50 was 2010 to 8000 nM.

`CN(C)S(=O)(=O)c1ccc(S(=O)(=O)Nc2ccccc2N2CCC(C3CCCO3)CC2)cc1` (stereo not shown) [Compound A-419, N1,N1-dimethyl-N4-{2-[4-(oxolan-2-yl)piperidin-1-yl]phenyl}benzene-1,4-disulfonamide] was tested. Which AC50 did it give?
The AC50 was ≤ 2000 nM.

For `CN(C)S(=O)(=O)c1ccc(S(=O)(=O)Nc2ccccc2N2CCC(O)(C3CC3)CC2)cc1` [Compound A-420, N4-[2-(4-cyclopropyl-4-hydroxypiperidin-1-yl)phenyl]-N1,N1-dimethylbenzene-1,4-disulfonamide], which AC50 is on record?
Its AC50 is 2010 to 8000 nM.

How did the AC50 turn out when `CN(C)S(=O)(=O)c1ccc(S(=O)(=O)Nc2ccccc2N2CCC3(CCOC3)CC2)cc1` [Compound A-422, N1,N1-dimethyl-N4-(2-{2-oxa-8-azaspiro[4.5]decan-8-yl}phenyl)benzene-1,4-disulfonamide] was run?
The AC50 was ≤ 2000 nM.

For `CS(=O)(=O)c1ccc(S(=O)(=O)Nc2ccccc2N2CCC3(CC2)CN(CC2CCOC2)c2cc(F)ccc23)cc1` (stereo not shown) [Compound A-423, N-(2-{6-fluoro-1-[(oxolan-3-yl)methyl]-1,2-dihydrospiro[indole-3,4′-piperidin]-1′-yl}phenyl)-4-methanesulfonylbenzene-1-sulfonamide], which AC50 is on record?
Its AC50 is ≤ 2000 nM.

Which AC50 does the source give for `CNS(=O)(=O)c1ccc(S(=O)(=O)Nc2ccccc2N2CCC(c3ccc(Cl)cc3F)CC2)cc1` [Compound A-424, N1-{2-[4-(4-chloro-2-fluorophenyl)piperidin-1-yl]phenyl}-N4-methylbenzene-1,4-disulfonamide] here?
The AC50 was 2010 to 8000 nM.

How did the AC50 turn out when `CN(C)S(=O)(=O)c1ccc(S(=O)(=O)Nc2ccccc2N2CCN(C(=O)C3(C)CCC3)CC2)cc1` [Compound A-425, N1,N1-dimethyl-N4-{2-[4-(1-methylcyclobutanecarbonyl)piperazin-1-yl]phenyl}benzene-1,4-disulfonamide] was run?
The AC50 was 2010 to 8000 nM.

Which AC50 does the source give for `CCC(C)(C)CC(=O)N1CCN(c2ccccc2NS(=O)(=O)c2ccc(S(=O)(=O)N(C)C)cc2)CC1` [Compound A-426, N4-{2-[4-(3,3-dimethylpentanoyl)piperazin-1-yl]phenyl}-N1,N1-dimethylbenzene-1,4-disulfonamide] here?
The AC50 was ≤ 2000 nM.

`CN(C)S(=O)(=O)c1ccc(S(=O)(=O)Nc2ccccc2N2CCN(C(=O)C3CC3(C)C)CC2)cc1` (stereo not shown) [Compound A-427, N4-{2-[4-(2,2-dimethylcyclopropanecarbonyl)piperazin-1-yl]phenyl}-N1,N1-dimethylbenzene-1,4-disulfonamide] was tested. Which AC50 did it give?
Its AC50 is 2010 to 8000 nM.

`CC(C(=O)N1CCN(c2ccccc2NS(=O)(=O)c2ccc(S(=O)(=O)N(C)C)cc2)CC1)C(C)(C)C` (stereo not shown) [Compound A-428, N1,N1-dimethyl-N4-{2-[4-(2,3,3-trimethylbutanoyl)piperazin-1-yl]phenyl}benzene-1,4-disulfonamide] was tested. Which AC50 did it give?
Its AC50 is ≤ 2000 nM.

How did the AC50 turn out when `CN(C)S(=O)(=O)c1ccc(S(=O)(=O)Nc2ccccc2N2CCN(C(=O)C3CC(F)(F)C3)CC2)cc1` [Compound A-429, N4-{2-[4-(3,3-difluorocyclobutanecarbonyl)piperazin-1-yl]phenyl}-N1,N1-dimethylbenzene-1,4-disulfonamide] was run?
Its AC50 is 2010 to 8000 nM.

How did the AC50 turn out when `CN(C)S(=O)(=O)c1ccc(S(=O)(=O)Nc2ccccc2N2CCN(C(=O)C3(CF)CCC3)CC2)cc1` [Compound A-430, N4-(2-{4-[1-(fluoromethyl)cyclobutanecarbonyl]piperazin-1-yl}phenyl)-N1,N1-dimethylbenzene-1,4-disulfonamide] was run?
The AC50 was 2010 to 8000 nM.

For `COC(C)(C)C(=O)N1CCN(c2ccccc2NS(=O)(=O)c2ccc(S(=O)(=O)N(C)C)cc2)CC1` [Compound A-431, N4-{2-[4-(2-methoxy-2-methylpropanoyl)piperazin-1-yl]phenyl}-N1,N1-dimethylbenzene-1,4-disulfonamide], which AC50 is on record?
The AC50 was 2010 to 8000 nM.

How did the AC50 turn out when `CN(C)S(=O)(=O)c1ccc(S(=O)(=O)Nc2ccccc2N2CCN(C(=O)C(C)(C)F)CC2)cc1` [Compound A-432, N4-{2-[4-(2-fluoro-2-methylpropanoyl)piperazin-1-yl]phenyl}-N1,N1-dimethylbenzene-1,4-disulfonamide] was run?
The AC50 was 2010 to 8000 nM.
